# Test results as given in paper PMC9012168 (BioProcess international, 2018).
# Starred links: 1 amine or outer side, 2 acyl side, 3 side chain; linkers in the order of their positions; H or OH if unused. Positions of bridges follow the written chain, without caps; N, C: chain ends. Non-standard residues stand in square brackets, D forms with d. Residues, ends and D or L forms follow the SMILES beside them. Chains are numbered I, II in the order given. Actinocin(9to1) = Cc1c2oc3c(C)ccc(C(=O)[*:1])c3nc-2c(C(=O)[*:2])c(N)c1=O; NMeV = CN[C@H](C(=O)O)C(C)C; Sar = CNCC(=O)O
# Assay: in vitro
# Format: cell-based
# Conditions: human
smiles,measurement,value
"Cc1c2oc3c(C)ccc(C(=O)N[C@@H]4C(=O)N[C@H](C(C)C)C(=O)N5CCC[C@H]5C(=O)N(C)CC(=O)N(C)[C@@H](C(C)C)C(=O)O[C@@H]4C)c3nc-2c(C(=O)N[C@@H]2C(=O)N[C@H](C(C)C)C(=O)N3CCC[C@H]3C(=O)N(C)CC(=O)N(C)[C@@H](C(C)C)C(=O)O[C@@H]2C)c(N)c1=O [dactinomycin] (I: T[dV]P[Sar][NMeV] / II: T[dV]P[Sar][NMeV]; ester I:1-I:C, II:1-II:C; linker I:N-II:N via Actinocin(9to1))",IC50,8.5 nM
